Measured values: PMC9202019 (ACS Omega, 2022)
Values joined by “and” are separate entries in the source; they are usually repeats but may differ in a detail not shown here. Equal values may be shown once. Read-outs that look alike come from different tables or passages of the source. Blank lines part the entries; values can stand above or below the compound they belong to.

Legend:
[1] = biological target: T1, CYP1A2 (Homo sapiens, UniProt P05177); settings: HLM; cited from earlier work
T1 sequence (P05177 1-516): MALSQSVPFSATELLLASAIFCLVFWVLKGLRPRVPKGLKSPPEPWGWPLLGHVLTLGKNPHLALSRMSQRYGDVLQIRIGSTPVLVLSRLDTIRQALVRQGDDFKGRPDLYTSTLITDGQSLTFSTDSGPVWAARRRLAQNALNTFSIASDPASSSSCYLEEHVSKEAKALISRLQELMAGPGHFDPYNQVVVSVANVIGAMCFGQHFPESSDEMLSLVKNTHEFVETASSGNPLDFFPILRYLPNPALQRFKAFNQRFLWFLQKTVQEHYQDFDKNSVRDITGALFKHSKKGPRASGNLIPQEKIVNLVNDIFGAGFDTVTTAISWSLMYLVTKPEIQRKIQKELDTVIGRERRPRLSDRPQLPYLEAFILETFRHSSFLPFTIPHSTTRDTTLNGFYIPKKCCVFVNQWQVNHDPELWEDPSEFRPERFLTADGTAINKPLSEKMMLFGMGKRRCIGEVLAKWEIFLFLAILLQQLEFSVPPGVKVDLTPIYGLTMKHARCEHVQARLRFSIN

[2] = biological target: T1, CYP1A2; settings: read-out: IC50 for CYP1A2-mediated phenacetin O-deethylation in HLM; cited from earlier work
[3] = humans; cited from earlier work
[4] = Pharmacokinetics of caffeine alone and with pinocembrin in rats; assay type: in vivo; settings: male, Wistar, rat, plasma, po, 15 mg/kg
[5] = tested on: CYP1A2; settings: cited from earlier work
[6] = biological target: T2, CYP1A2 (Rattus norvegicus, UniProt P04799); settings: read-out: IC50 for CYP1A2 in RLM; cited from earlier work
T2 sequence (P04799 1-513): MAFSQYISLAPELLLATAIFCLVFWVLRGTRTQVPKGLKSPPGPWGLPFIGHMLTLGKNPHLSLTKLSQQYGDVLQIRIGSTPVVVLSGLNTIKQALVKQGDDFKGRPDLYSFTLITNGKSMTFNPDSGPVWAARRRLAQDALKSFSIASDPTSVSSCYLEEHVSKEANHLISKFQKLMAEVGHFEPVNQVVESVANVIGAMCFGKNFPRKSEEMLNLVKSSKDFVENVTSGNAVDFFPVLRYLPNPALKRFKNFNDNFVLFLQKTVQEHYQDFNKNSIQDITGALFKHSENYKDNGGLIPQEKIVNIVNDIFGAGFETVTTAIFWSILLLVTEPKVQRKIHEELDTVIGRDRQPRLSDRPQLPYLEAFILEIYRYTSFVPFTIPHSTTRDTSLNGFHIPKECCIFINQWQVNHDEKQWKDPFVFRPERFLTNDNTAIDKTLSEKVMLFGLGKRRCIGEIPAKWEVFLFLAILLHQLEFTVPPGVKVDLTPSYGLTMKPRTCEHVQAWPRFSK

[7] = assay type: in vivo, Wistar rats; settings: male, Wistar, rat, plasma, po, 4 mg/kg; for AUC(0-t): AUC0–t, tacrine 4 mg/kg oral alone (group III); for half-life: T1/2, tacrine 4 mg/kg oral alone (group III)
[8] = biological target: T1, CYP1A2; settings: cited from earlier work
[9] = biological target: T1, CYP1A2; settings: HLM 0.3 mg/mL, phenacetin 1–1500 μM, 30 min
[10] = Stability of pinocembrin in HLM; assay type: in vitro ADME, human; settings: pinocembrin 5 μM, HLM 0.3 mg/mL, 0-30 min, 37 °C
[11] = Stability of pinocembrin in RLM; assay type: in vitro ADME, rat; settings: protocol as for HLM
[12] = biological target: T2, CYP1A2; assay: CYP1A2-catalyzed phenacetin O-deethylation in RLM; assay type: in vitro ADME
[13] = Liver distribution of pinocembrin after intravenous dosing in rats; assay type: in vivo; settings: male, Wistar, rat, 10 mg/kg
[14] = tested on: CYP2C9; settings: read-out: IC50 for CYP2C9 inhibition; cited from earlier work
[15] = tested on: CYP2C19; settings: read-out: IC50 for CYP2C19 inhibition; cited from earlier work
[16] = tested on: CYP3A4; settings: read-out: IC50 for CYP3A4 inhibition; cited from earlier work
[17] = humans; cited from earlier work; remark: listed apart in the source

Structure (SMILES): O=c1cc(-c2ccc(O)c(O)c2)oc2cc(O)cc(O)c12 [Luteolin]
- type of CYP1A2 inhibition [1]: competitively

Structure (SMILES): CS(=O)(=O)c1ccc(C2=C(c3ccccc3)C(=O)OC2)cc1 [Rofecoxib]
- IC50 [2]: 4.2 µM
- increase in plasma concentration of the CYP1A2 substrate tizanidine [3]: 13.6 fold

- AUC(0-t) ([4]; AUC0–t, caffeine 15 mg/kg oral alone (group I)): 2840 ± 141 ng·h/mL
- half-life ([4]; T1/2, caffeine 15 mg/kg oral alone (group I)): 1.1 ± 0.1 h
Structure (SMILES): Cn1c(=O)c2c(ncn2C)n(C)c1=O [caffeine]
- portion of the drug metabolized by CYP1A2 [5]: > 95%

Structure (SMILES): Cc1nc2c([nH]1)c(=O)n(C)c(=O)n2Cc1ccco1 [furafylline]
- IC50 [6]: 20.8 µM

- AUC(0-t) [7]: 907 ± 129 ng·h/mL
- half-life [7]: 1.5 ± 0.3 h
Structure (SMILES): Nc1c2c(nc3ccccc13)CCCC2O (stereo not drawn) [hydroxytacrine, 1-hydroxytacrine]

Structure (SMILES): CC(C)C1=Cc2ccc3c(c2C(=O)C1=O)CCCC3(C)C [miltirone]
- type of CYP1A2 inhibition ([8]; kinetic analysis): mixed-type
- IC50 ([8]; read-out: IC50 for CYP1A2 in HLM, HLM): 1.73 µM

- maximum velocity of the uninhibited reaction (Vmax) for CYP1A2-catalyzed phenacetin O-deethylation [9]: 1584 ± 12 pmol/min/mg of protein
Structure (SMILES): CCOc1ccc(NC(C)=O)cc1 [phenacetin]

- Stability of pinocembrin in HLM (amount remaining vs 0 min) [10]: stable
- Stability of pinocembrin in RLM (amount remaining vs 0 min) [11]: stable
- IC50 [12]: 3.11 ± 0.09 µM
- Kp ([13]; liver and plasma): 1.8 to 3.8
- concentration at 5 min ([13]; liver): 3680 ng/g
- concentration at 15 min ([13]; liver): 2380 ng/g
- concentration at 5 min ([13]; plasma): 2030 ng/mL and 7.9 µM
- concentration at 15 min ([13]; plasma): 621 ng/mL
Structure (SMILES): O=C1C[C@@H](c2ccccc2)Oc2cc(O)cc(O)c21 [pinocembrin]
- IC50 [14]: 13 µM
- IC50 [15]: 22 µM
- IC50 [16]: 28 µM

- AUC(0-t) [7]: 142 ± 13 ng·h/mL
- half-life [7]: 1.7 ± 0.2 h
Structure (SMILES): Nc1c2c(nc3ccccc13)CCCC2 [tacrine]
- contribution of CYP1A2 to metabolism [5]: > 90%

Structure (SMILES): c1ccc2[nH]c(-c3cscn3)nc2c1 [thiabendazole]
- enhancement in the plasma level of caffeine [17]: 1.6 fold
